Measurements reported in patent US8889667B2 (Agios Pharmaceuticals, Inc, priority 2010, dated 2014).

These molecules were tested against PKM2 (Homo sapiens, UniProt P14618) (assay: PKM2 Assay (activation, LDH-coupled, absorbance at 340 nm)). Conditions: Table 4.
Chain of PKM2 (P14618 whole entry): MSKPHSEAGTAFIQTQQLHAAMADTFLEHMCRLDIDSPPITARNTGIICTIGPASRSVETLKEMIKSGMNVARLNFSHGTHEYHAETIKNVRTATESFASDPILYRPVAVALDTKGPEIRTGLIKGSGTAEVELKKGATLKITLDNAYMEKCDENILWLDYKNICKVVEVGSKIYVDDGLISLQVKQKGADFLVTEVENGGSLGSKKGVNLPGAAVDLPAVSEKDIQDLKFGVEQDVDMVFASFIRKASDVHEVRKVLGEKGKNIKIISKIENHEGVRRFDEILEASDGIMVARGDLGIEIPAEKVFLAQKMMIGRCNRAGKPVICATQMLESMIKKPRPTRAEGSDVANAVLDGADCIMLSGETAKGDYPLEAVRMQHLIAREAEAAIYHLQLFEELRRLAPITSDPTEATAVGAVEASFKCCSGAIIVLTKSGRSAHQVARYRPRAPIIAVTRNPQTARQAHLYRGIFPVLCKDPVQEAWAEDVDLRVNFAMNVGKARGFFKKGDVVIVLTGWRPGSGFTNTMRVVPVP
Type: biochemical
Protocol: • PKM2 stock enzyme solution was diluted in Reaction Buffer • 2 μL of compound was added into each well first, and then 180 μL of the Reaction Mix was added. • Reaction mixture with compound (without ADP) was incubated for 30 minutes at 4° C. • Plates were re-equilibrated to room temperature prior to adding 20 μL ADP to initiate the reaction. • Reaction progress was measured as changes in absorbance at 340 nm wavelength at room temperature (25° C.) Reaction Mix: PKM2 (50 ng/well), ADP (0.7 mM), PEP (0.15 mM), NADH (180 μM), LDH (2 units) in Reaction Buffer Reaction Buffer: 100 mM KCl, 50 mM Tris pH 7.5, 5 mM MgCl2, 1 mM DTT, 0.03% BSA.
Representative compounds of the invention were tested for their ability to activate PKM2 using the above assay. For simplicity, the activation activity of these compounds is represented as an AC50 in Tables 4 and 5 and throughout the application. […] “B” refers to an activator of PKM2 with an EC50 between 100 nM and 500 nM. “C” refers to an activator of PKM2 with an EC50 between 500 nM and 1000 nM. “D” refers to an activator of PKM2 with an EC50 between 1 μM and 20 μM. “E” refers a compound whose activation of PKM2 was not measurable. “N/C” refers to AC50 data not available.
In the case of `C[C@@H]1CN(C(=O)O[C@@H]2CCCOC2)CCN1C(=O)c1ccc(NS(=O)(=O)c2cccc3cccnc23)cc1` [Compound 127, (R)—((R)-tetrahydro-21′-pyran-3-yl)-3-methyl-4-(4-(quinoline-8-sulfonamido)benzoyl)piperazine-1-carboxylate], the AC50 was 100 to 500 nM. `C[C@H]1CN(Cc2ccccc2F)CCN1C(=O)c1ccc(NS(=O)(=O)c2cccc3cccnc23)cc1` [Compound 143, (S)—N-(4-(4-(2-fluorobenzyl)-2-methylpiperazine-1-carbonyl)phenyl)quinoline-8-sulfonamide] was tested, and the AC50 was < 100 nM. For `CC1CN(C(=O)c2ccccn2)CC(C)N1C(=O)c1ccc(NS(=O)(=O)c2cccc3cccnc23)cc1` (racemic) [Compound 116], the AC50 was 1000 to 20000 nM. With `C[C@H]1CN(CC2CC2)CCN1C(=O)c1ccc(NS(=O)(=O)c2cccc3cccnc23)cc1Cl` [Compound 178] the AC50 was 100 to 500 nM. For `CC(C)OC(=O)N1CCN(C(=O)c2ccc(NS(=O)(=O)c3cccc4cccnc34)cc2)[C@@H](C)C1` [Compound 108, (S)-isopropyl 3-methyl-4-(4-(quinoline-8-sulfonamido)benzoyl)piperazine-1-carboxylate], the AC50 was < 100 nM. With `C[C@H]1CN(Cc2c(F)ccc(F)c2F)CCN1C(=O)c1ccc(NS(=O)(=O)c2cccc3cccnc23)cc1` [Compound 141, (S)—N-(4-(2-methyl-4-(2,3,6-trifluorobenzyl)piperazine-1-carbonyl)phenyl)quinoline-8-sulfonamide] the AC50 was 100 to 500 nM. For `O=C(c1ccc(NS(=O)(=O)c2cccc3cccnc23)cc1)N1C2CCC1CN(Cc1ccccc1)C2` [Compound 213], the AC50 was < 100 nM. `C[C@H]1CN(Cc2ccc(Cl)c(F)c2)CCN1C(=O)c1ccc(NS(=O)(=O)c2cccc3cccnc23)cc1Cl` [Compound 185, (S)—N-(3-chloro-4-(4-(4-chloro-3-fluorobenzyl)-2-methylpiperazine-1-carbonyl)phenyl)quinoline-8-sulfonamide] was tested, and the AC50 was 500 to 1000 nM. `C[C@H]1CN(C(=O)c2ccc(NS(=O)(=O)c3cccc4cccnc34)cc2)CCN1C(=O)c1ccccn1` [Compound 100] gave an AC50 of 100 to 500 nM. With `C[C@H]1CN(CC2CCCC2)CCN1C(=O)c1ccc(NS(=O)(=O)c2cccc3cccnc23)cc1Cl` [Compound 186, (S)—N-(3-chloro-4-(4-(cyclopentylmethyl)-2-methylpiperazine-1-carbonyl)phenyl)quinoline-8-sulfonamide] the AC50 was < 100 nM. Work on `CC1CN(Cc2c(F)cc(F)cc2F)CC(C)N1C(=O)c1ccc(NS(=O)(=O)c2cccc3cccnc23)cc1` (stereo not shown) [Compound 202, N-(4-(2,6-dimethyl-4-(2,4,6-trifluorobenzyl)piperazine-1-carbonyl)phenyl)quinoline-8-sulfonamide] yielded an AC50 of 100 to 500 nM. In the case of `O=C(c1ccc(NS(=O)(=O)c2cccc3cccnc23)cc1)N1CCN(Cc2ccc(F)cc2)C[C@@H]1c1ccccc1` [Compound 165], the AC50 was < 100 nM.

Same assay, conditions: Table 5
For `CC(c1c(F)cc(F)cc1F)N1CCN(C(=O)c2ccc(NS(=O)(=O)c3cccc4cccnc34)cc2)CC1` (stereo not shown) [Compound 397, N-(4-(4-(1-(2,4,6-trifluorophenyl)ethyl)piperazine-1-carbonyl)phenyl)quinoline-8-sulfonamide], the AC50 was < 100 nM. In the case of `O=C(c1ccc(NS(=O)(=O)c2cccc3cccnc23)cc1)N1CCN(C(=O)c2cnns2)CC1` [Compound 313, N-(4-(4-(1,2,3-thiadiazole-5-carbonyl)piperazine-1-carbonyl)phenyl)quinoline-8-sulfonamide], the AC50 was < 100 nM. `O=C(c1ccc(NS(=O)(=O)c2cccc3cccnc23)c(OC(F)(F)F)c1)N1CCN(Cc2ccc(F)c(F)c2)CC1` [Compound 378, N-(4-(4-(3,4-difluorobenzyl)piperazine-1-carbonyl)-2-(trifluoromethoxy)phenyl)quinoline-8-sulfonamide] was tested, and the AC50 was 100 to 500 nM. In the case of `[2H]C([2H])(c1cc(F)cc(F)c1)N1CCN(C(=O)c2ccc(NS(=O)(=O)c3cccc4cccnc34)cc2)CC1` [Compound 449, N-(4-(4-(3,5-difluorobenzyl)piperazine-1-carbonyl)phenyl)quinoline-8-sulfonamide-(D2)], the AC50 was < 100 nM. In the case of `O=C(c1ccc(NS(=O)(=O)c2cccc3cccnc23)cc1)N1CCN(C(=O)C2CCCCO2)CC1` (stereo not shown) [Compound 430, N-(4-(4-(tetrahydro-2H-pyran-2-carbonyl)piperazine-1-carbonyl)phenyl)quinoline-8-sulfonamide], the AC50 was < 100 nM. For `CC(C1CC1)N1CCN(C(=O)c2ccc(NS(=O)(=O)c3cccc4cccnc34)cc2)CC1` (stereo not shown) [Compound 442, N-(4-(4-(1-cyclopropylethyl)piperazine-1-carbonyl)phenyl)quinoline-8-sulfonamide], the AC50 was < 100 nM. For `CC(C)(c1ccccc1)N1CCN(C(=O)c2ccc(NS(=O)(=O)c3cccc4cccnc34)cc2)CC1` [Compound 364], the AC50 was < 100 nM. For `O=C(c1ccc(NS(=O)(=O)c2cccc3cccnc23)cc1)N1CCN(C2(c3ccc(F)cc3)CC2)CC1` [Compound 399, N-(4-(4-(1-(4-fluorophenyl)cyclopropyl)piperazine-1-carbonyl)phenyl)quinoline-8-sulfonamide], the AC50 was < 100 nM. `O=C(c1cnc(NS(=O)(=O)c2cccc3cccnc23)cn1)N1CCN(Cc2ccc(F)cc2)CC1` [Compound 452, N-(5-(4-(4-fluorobenzyl)piperazine-1-carbonyl)pyrazin-2-yl)quinoline-8-sulfonamide] showed an AC50 of 1000 to 20000 nM. With `O=C(c1ccc(NS(=O)(=O)c2cccc3cccnc23)c(OC(F)(F)F)c1)N1CCN(Cc2ncc[nH]2)CC1` [Compound 380, N-(4-(4-((1H-imidazol-2-yl)methyl)piperazine-1-carbonyl)-2-(trifluoromethoxy)phenyl)quinoline-8-sulfonamide] the AC50 was 100 to 500 nM. `COc1ccc(CN2CCN(C(=O)c3ccc(NS(=O)(=O)c4cccc5cccnc45)c(OC(F)(F)F)c3)CC2)c(OC)c1` [Compound 333, N-(4-(4-(2,4-dimethoxybenzyl)piperazine-1-carbonyl)-2-(trifluoromethoxy)phenyl)quinoline-8-sulfonamide] showed an AC50 of 500 to 1000 nM. In the case of `O=C(c1ccc(NS(=O)(=O)c2cccc3cccnc23)c(OC(F)(F)F)c1)N1CCN(Cc2cccc(Cl)c2Cl)CC1` [Compound 306, N-(4-(4-(2,3-dichlorobenzyl)piperazine-1-carbonyl)-2-(trifluoromethoxy)phenyl)quinoline-8-sulfonamide], the AC50 was 500 to 1000 nM. `O=C(c1ccc(NS(=O)(=O)c2cccc3cccnc23)nc1)N1CCN(CC2CC2)CC1` [Compound 411, N-(5-(4-(cyclopropylmethyl)piperazine-1-carbonyl)pyridin-2-yl)quinoline-8-sulfonamide] showed an AC50 of 1000 to 20000 nM. `O=C(c1ccc(NS(=O)(=O)c2cccc3cccnc23)cc1F)N1CCN(Cc2ccc(Cl)c(F)c2)CC1` [Compound 422, N-(4-(4-(4-chloro-3-fluorobenzyl)piperazine-1-carbonyl)-3-fluorophenyl)quinoline-8-sulfonamide] gave an AC50 of 100 to 500 nM. Work on `O=C(c1ccc(NS(=O)(=O)c2cccc3cccnc23)c(OC(F)(F)F)c1)N1CCN(Cc2ccc(Cl)cc2F)CC1` [Compound 339, N-(4-(4-(4-chloro-2-fluorobenzyl)piperazine-1-carbonyl)-2-(trifluoromethoxy)phenyl)quinoline-8-sulfonamide] yielded an AC50 of 100 to 500 nM. With `O=C(c1ccc(NS(=O)(=O)c2cccc3cccnc23)cc1)N1CCN(C(=O)C2CCOC2)CC1` (stereo not shown) [Compound 418, N-(4-(4-(tetrahydrofuran-3-carbonyl)piperazine-1-carbonyl)phenyl)quinoline-8-sulfonamide] the AC50 was 100 to 500 nM.
